Test results taken from US9650384B2, “Substituted pyrimidine compounds and methods of use and manufacture” (Duquesne University of the Holy Spirit, priority 2014, dated 2017).
Where two headings read alike, the source gives them in different places. Each block holds one molecule with its values, some of them ahead of it.

Columns and labels:
[1] = system: KB human tumor subline (expressing RFC, FRα, and PCFT); assay: Growth inhibition assay, KB human tumor subline; type: cell-based
[2] = system: CHO subline engineered to express human FRα (RT16); assay: Growth inhibition assay, CHO subline RT16 expressing FRα; type: cell-based; conditions: read-out: IC50 RT16, FR
GARFTase = target: T1, GARFTase (Homo sapiens, UniProt P22102); conditions: reported in reference 1; cited from earlier work
T1 sequence (P22102 1-1010): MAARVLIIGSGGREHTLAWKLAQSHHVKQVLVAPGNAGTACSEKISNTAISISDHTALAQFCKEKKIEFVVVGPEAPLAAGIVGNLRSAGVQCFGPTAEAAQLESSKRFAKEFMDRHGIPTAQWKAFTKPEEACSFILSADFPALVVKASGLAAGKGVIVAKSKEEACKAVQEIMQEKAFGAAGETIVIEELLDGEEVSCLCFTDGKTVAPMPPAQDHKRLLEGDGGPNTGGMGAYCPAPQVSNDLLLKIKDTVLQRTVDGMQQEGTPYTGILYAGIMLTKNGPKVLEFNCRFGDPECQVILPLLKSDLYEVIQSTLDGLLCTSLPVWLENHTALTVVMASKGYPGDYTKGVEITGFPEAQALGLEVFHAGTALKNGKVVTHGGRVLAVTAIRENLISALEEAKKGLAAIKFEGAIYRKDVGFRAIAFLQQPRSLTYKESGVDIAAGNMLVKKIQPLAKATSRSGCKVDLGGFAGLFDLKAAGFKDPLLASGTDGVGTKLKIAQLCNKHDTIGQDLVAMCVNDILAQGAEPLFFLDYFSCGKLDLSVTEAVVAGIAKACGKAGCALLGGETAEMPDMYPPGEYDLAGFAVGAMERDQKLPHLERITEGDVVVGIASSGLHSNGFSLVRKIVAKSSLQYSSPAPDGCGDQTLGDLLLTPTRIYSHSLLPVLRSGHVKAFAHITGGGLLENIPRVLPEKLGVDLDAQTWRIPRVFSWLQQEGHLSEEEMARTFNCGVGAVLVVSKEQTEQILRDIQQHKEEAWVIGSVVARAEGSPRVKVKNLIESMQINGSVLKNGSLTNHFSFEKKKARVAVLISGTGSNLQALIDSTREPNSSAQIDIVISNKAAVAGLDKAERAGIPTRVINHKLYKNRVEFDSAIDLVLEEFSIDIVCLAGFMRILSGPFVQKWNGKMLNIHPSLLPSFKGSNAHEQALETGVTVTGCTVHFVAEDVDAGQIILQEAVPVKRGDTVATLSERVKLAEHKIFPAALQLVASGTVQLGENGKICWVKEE

AICARFTase = AICARFTase (Homo sapiens, UniProt P31939); conditions: reported in reference 1; cited from earlier work
[3] = system: CHO subline engineered to express human RFC (PC43-10); assay: Growth inhibition assay, CHO subline PC43-10 expressing human RFC; type: cell-based
[4] = system: CHO subline engineered to express human PCFT (R2/PCFT4); assay: Growth inhibition assay, CHO subline R2/PCFT4 expressing PCFT; type: cell-based; conditions: R2/PCFT4 cells
[5] = system: transporter-null (R2) CHO cells; assay: Growth inhibition assay, transporter-null R2 CHO cells; type: cell-based; conditions: Cricetulus griseus, Table 1, mean of 3 to 10 experiments
[6] = Table 1, growth inhibition by 50% relative to cells without drug, mean of 3 to 10 experiments

Sequence of AICARFTase (P31939 whole entry): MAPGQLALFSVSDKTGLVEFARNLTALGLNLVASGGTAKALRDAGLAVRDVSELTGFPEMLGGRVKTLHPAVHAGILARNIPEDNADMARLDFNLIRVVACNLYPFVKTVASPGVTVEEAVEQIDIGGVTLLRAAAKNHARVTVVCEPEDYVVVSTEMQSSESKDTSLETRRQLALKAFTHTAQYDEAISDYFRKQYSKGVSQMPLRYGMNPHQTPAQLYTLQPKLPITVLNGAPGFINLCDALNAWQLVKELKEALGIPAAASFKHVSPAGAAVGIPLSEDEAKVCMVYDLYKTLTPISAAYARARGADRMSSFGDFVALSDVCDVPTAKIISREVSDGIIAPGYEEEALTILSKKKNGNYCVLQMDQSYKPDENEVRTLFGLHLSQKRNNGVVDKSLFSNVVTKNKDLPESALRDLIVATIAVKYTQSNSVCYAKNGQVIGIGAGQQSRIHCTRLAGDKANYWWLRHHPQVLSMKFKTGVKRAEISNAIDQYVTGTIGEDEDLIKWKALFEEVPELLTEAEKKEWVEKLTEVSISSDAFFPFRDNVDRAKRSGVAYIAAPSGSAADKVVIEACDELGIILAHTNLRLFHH

SMILES: Nc1nc2[nH]cc(CCCCc3ccc(C(=O)N[C@@H](CCC(=O)O)C(=O)O)cc3)c2c(=O)[nH]1 [Compound 3]
IC50 [1, 6]: 12.7 nM | IC50 ([1]; Table 2): 12.7 nM | IC50 [2, 6]: 8.6 nM | IC50 ([2]; Table 2): 8.6 nM | inhibition of GARFTase (GARFTase): inhibited | inhibition of AICARFTase (AICARFTase): inhibited | IC50 [3, 6]: 56.6 nM | IC50 ([3]; Table 2): 56.6 nM | IC50 ([4]; Table 1, mean of 3 to 10 experiments): 840 nM | IC50 ([4]; Table 2): 840 nM

SMILES: Nc1nc2[nH]cc(CCCCc3cccc(C(=O)N[C@@H](CCC(=O)O)C(=O)O)c3)c2c(=O)[nH]1 [Compound 11]
IC50 ([1]; Table 2): > 1000 nM | IC50 ([2]; Table 2): > 1000 nM | IC50 ([3]; Table 2): 608 nM | IC50 ([4]; Table 2): > 1000 nM

SMILES: Nc1nc2[nH]cc(CCc3ccc(C(=O)N[C@@H](CCC(=O)O)C(=O)O)cc3)c2c(=O)[nH]1 [PMX, Pemetrexed]
IC50 [5]: > 1000 nM | IC50 ([1]; Table 2): 9.94 nM | IC50 ([3]; Table 2): 30.6 nM

Continued, in another order:

IC50 ([1]; Table 2): 51 nM
SMILES: Nc1nc2[nH]cc(CCCOc3ccc(C(=O)N[C@@H](CCC(=O)O)C(=O)O)cc3)c2c(=O)[nH]1 [Compound 9]
IC50 ([2]; Table 2): 42.2 nM | IC50 ([3]; Table 2): 53.2 nM | IC50 ([4]; Table 2): 390 nM

IC50 ([1]; Table 2): > 1000 nM
SMILES: Nc1nc2[nH]cc(CCCSc3ccc(C(=O)N[C@@H](CCC(=O)O)C(=O)O)cc3)c2c(=O)[nH]1 [Compound 10]
IC50 ([2]; Table 2): 281 nM | IC50 ([3]; Table 2): > 1000 nM | IC50 ([4]; Table 2): 549 nM
